“Also recorded” adds a separate entry of the source.
Columns and labels:
HL-60 cells = assay: Mitochondrial membrane potential (MMP) with JC-9, red and green fluorescence, flow cytometry; assay type: cell-based, human
Method: Cells were deposited into 384 well plates (1×10^6 cells in 40 μl tissue culture media) and serial dilutions of test compounds (or vehicle in the case of controls) were deposited in individual wells using standard robotic techniques. Compound deposition and dilution was performed by BIOMEK FX (5 or 10 step dilutions from 100 to 0.005 μM). Dilutions were prepared from stock solutions of compounds dissolved initially in 100% DMSO. Final volume deposited into each well is 2 μl of each compound dilution (compounds are in a final concentration of 1% DMSO). After incubation in a tissue culture incubator (5% CO2 at 37° C.) for varying periods of time (typically 4 hours), plates were centrifuged at room temperature, followed by removal of 20 μl supernatant fluid, After vibration of the plate to re-suspend cells, a dye mix (Plate in Monobromobimane, CALCEIN AM, MITOSOX™ and SYTOSOX™ RED; plate 1b VYBRANVIOLET™ Live Cell Cycle dye, JC-9, and SYTOSOX™ RED) was added in a total volume of 20 μl, followed by an additional mixing step. Plates were returned to the tissue culture incubator (5% CO2 at 37° C.) for an additional 15 min (plate 1a) or 30 min (plate 1b), followed by immediate analysis using the […]-CYAN™.
Each well of the 384 wellplate was sampled with a 6 second sip time, plus 1 second delay between wells, resulting in a total read time for each plate of approximately 45 minutes. Data was acquired using a CYAN™ flow cytometer, with the […]™ software used to compile files for each well on an individual plate using an FCS format. Data for each plate was subsequently analyzed for several quality assurance parameters (total number of events per well, numbers of events associated with morphologically normal events, number of dead cells), as described below.
Measurements identical to those described in Example 2 above were made using a second combination of dyes:
(2) JC-9 to measure mitochondrial membrane potential (MMP); and
The measurement of mitochondrial membrane potential (MMP) with JC-9 was performed with two independent fluorescence channels (green and red fluorescence signals), as changes in MMP cause aggregation of the dye, with different fluorescence emission by the aggregated versus non-aggregated dye molecules. […] At higher valinomycin concentrations, red fluorescence […]. A unique aspect of this assay is that it correlates changes in MMP (JC-9) and cell death (SYTOXRED™) with the phases of the cell cycle (G1, S, and G2M).

HL-60 cell line = assay: Cell physiology assay plate 1a (MBBR, CALCEIN AM, MITOSOX RED, SYTOXRED, light scatter) by flow cytometry; assay type: cell-based, human
Method: Cells were deposited into 384 well plates (1×10^6 cells in 40 μl tissue culture media) and serial dilutions of test compounds (or vehicle in the case of controls) were deposited in individual wells using standard robotic techniques. Compound deposition and dilution was performed by BIOMEK FX (5 or 10 step dilutions from 100 to 0.005 μM). Dilutions were prepared from stock solutions of compounds dissolved initially in 100% DMSO. Final volume deposited into each well is 2 μl of each compound dilution (compounds are in a final concentration of 1% DMSO). After incubation in a tissue culture incubator (5% CO2 at 37° C.) for varying periods of time (typically 4 hours), plates were centrifuged at room temperature, followed by removal of 20 μl supernatant fluid, After vibration of the plate to re-suspend cells, a dye mix (Plate in Monobromobimane, CALCEIN AM, MITOSOX™ and SYTOSOX™ RED; plate 1b VYBRANVIOLET™ Live Cell Cycle dye, JC-9, and SYTOSOX™ RED) was added in a total volume of 20 μl, followed by an additional mixing step.
Data was acquired using a CYAN™ flow cytometer, with the […]™ software used to compile files for each well on an individual plate using an FCS format. Data for each plate was subsequently analyzed for several quality assurance parameters (total number of events per well, numbers of events associated with morphologically normal events, number of dead cells), as described below.
Flow cytometric analyses of intrinsic cell properties (forward light scatter and light scattered orthogonal to the laser beam) and fluorescence signals derived from the dyes listed in Table 1 was carried out for plates 1a and 1b.
MITOSOX™ RED is a compound that can diffuse into viable cells and reacts with superoxide anion species, particularly products of mitochondrial respiration; conditions such as cell stress can cause mitochondria to respond (sometimes rapidly) by increasing respiration and/or release superoxide anions; and
(3) SYTOXRED™ to measure cell viability (loss of nuclear membrane integrity). SYTOXRED™ is a high-affinity DNA stain that can only pass through the cytoplasmic and nuclear membranes of cells which have lost the integrity of both membranes; thus, brightly fluorescent cells are dead.

K562 cells = assay: Cell cycle measured by DNA content in K562 cells; assay type: cell-based, human; details: 30 min exposure, listed as imatinib
Method: Cells were deposited onto dilutions of test compounds deposited into individual wells of 96 well plates, as indicated above. […] Following 15 min incubation (at 37° C.?), cells were pelleted by centrifugation, supernatant removed, and the cells were suspended by vibrating the plate.
Cell were permeabilized by adding 150 μl cold absolute methanol, followed by incubation at 4° C. for 15 minutes. Permeabilized cells were centrifuged, supernatant removed, and cells were washed three times with cold (4° C.) PBS containing 4% FBS. Following the final wash, cells were centrifuged, the supernatant was removed, and cells were re-suspended in an antibody cocktail (total volume 20 μl) appropriate for that experiment.

[1] = test system: human peripheral blood monocytes; assay: Kinetics of signal transduction responses to LPS in whole blood monocytes, flow cytometry of fixed and permeabilized cells; assay type: cell-based; details: LPS in the presence of the inhibitor, compared to LPS alone
[2] = HL-60 cells, increasing concentration
[3] = HL-60 cells, concentration series
[4] = 33 μM, population with altered morphology, compared to cells with normal morphology
[5] = 33 μM, population with normal morphology

CC(=O)[C@]1(O)Cc2c(O)c3c(c(O)c2[C@@H](O[C@H]2C[C@H](N)[C@H](O)[C@H](C)O2)C1)C(=O)c1ccccc1C3=O [idarubicin]
JC-9 red fluorescence versus untreated control cells (HL-60 cells; HL60 cells, 1.23 μM): significantly higher | concentration at which red fluorescence of JC-9 begins to increase significantly (HL-60 cells; HL60 cells, concentration series): 1.23 µM | JC-9 green fluorescence (HL-60 cells; [2]): does not increase

CC(C)[C@@H]1NC(=O)[C@H](C)OC(=O)[C@@H](C(C)C)NC(=O)[C@@H](C(C)C)OC(=O)[C@H](C(C)C)NC(=O)[C@H](C)OC(=O)[C@@H](C(C)C)NC(=O)[C@@H](C(C)C)OC(=O)[C@H](C(C)C)NC(=O)[C@H](C)OC(=O)[C@@H](C(C)C)NC(=O)[C@@H](C(C)C)OC1=O [valinomycin]
concentration at which red and green JC-9 fluorescence peak (HL-60 cells; [3]): ~0.045 µM | concentration of peak green JC-9 fluorescence (HL-60 cells; [3]): ~0.05 µM | JC-9 green fluorescence (HL-60 cells; [2]): significantly higher; also recorded: initially increase | JC-9 red fluorescence (HL-60 cells; [2]): significantly higher; also recorded: initially increase | JC-9 red/green fluorescence ratio (HL-60 cells; at higher concentrations (above green peak)): increasing

CNCCC(Oc1ccc(C(F)(F)F)cc1)c1ccccc1 (stereo not shown) [fluoxetine]
cells that have lost "normal morphology" (HL-60 cell line; 100 μM): Approximately 30% | GSH (MBBR) (HL-60 cell line; 100 μM, affected cells): reduced | ROS (MITOSOX RED) (HL-60 cell line; 100 μM, affected cells): increased

CO/C(=C/C(N)=O)[C@H](C)[C@H](/C=C/c1csc(-c2csc([C@@H](C)/C=C/C=C/C(C)C)n2)n1)OC [myxothiazol]
CALCEIN AM (cytoplasmic membrane permeability) (HL-60 cell line; 100 μM, affected cells): decrease | GSH (MBBR) (HL-60 cell line; 100 μM, affected cells): decrease | ROS (MITOSOX RED) (HL-60 cell line; 100 μM, affected cells): increase | SYTOXRED (cytoplasmic and nuclear membrane permeability, viability) (HL-60 cell line; 100 μM, affected cells): increase | cell morphology (light scatter) (HL-60 cell line; 100 μM, affected cells): significant change | SYTOXRED (cytoplasmic and nuclear membrane permeability, viability) (HL-60 cell line; 100 μM, affected cells, listed as myxothiozol): perturbs

Cc1ccc(NC(=O)c2ccc(CN3CCN(C)CC3)cc2)cc1Nc1nccc(-c2cccnc2)n1 [GLEEVEC™]
change in the cell cycle, as measured by DNA content (K562 cells): no concomitant change

N#CC(C#N)=NNc1ccc(OC(F)(F)F)cc1 [FCCP, carbonyl cyanide-4-(trifluoromethoxy)phenylhydrazone]
CALCEIN (HL-60 cell line; [4]): increased | GSH (HL-60 cell line; [4]): reduced | ROS (HL-60 cell line; [4]): increased | SYTOXRED (HL-60 cell line; [4]): higher | CALCEIN AM level (HL-60 cell line; [5]): normal | GSH level (HL-60 cell line; [5]): normal | ROS (indicator of mitochondrial stress) (HL-60 cell line; [5]): increased | nuclear and cytoplasmic membranes (SYTOX Red uptake) (HL-60 cell line; [5]): intact | cell morphology (HL-60 cell line; 33 μM, second distinct population (light blue)): altered

CS(=O)(=O)N1CCN(Cc2cc3nc(-c4cccc5[nH]ncc45)nc(N4CCOCC4)c3s2)CC1 [GDC0941]
kinetics of ERK phosphorylation [1]: delayed
